Source: US20080287486A1, “Prokinetic agent for bowel preparation” (Theravance, Inc., priority 2007, published 2008)

Tested on: healthy subjects
Assay: Measurement of onset of bowel movement in healthy subjects (stool diary card, rising single doses)
Assay type: in vivo, human
Details: for Mean Number of Bowel Movements / Median Time to First Bowel Movement: first 24 hour post dosing period; for Mean Number of Bowel Movements: standard deviation in parentheses; for Median Time to First Bowel Movement: gelatin capsules; for average Bristol score (stool consistency, 1 hard pellets to 7 liquid): placebo 3.2 (0.7)
Experimental: Subjects were monitored for safety and evidence of prokinetic effects using a stool diary card. Time and consistency (Bristol score) of each bowel movement were recorded.

For `CC(C)n1c(=O)c(C(=O)N[C@H]2C[C@H]3CC[C@@H](C2)N3C[C@@H](O)CN(C)S(C)(=O)=O)cc2ccccc21.Cl` [prokinetic agent, 1-isopropyl-2-oxo-1,2-dihydroquinoline-3-carboxylic acid {(1S,3R,5R)-8-[(R)-2-hydroxy-3-(methanesulfonyl-methyl-amino)propyl]-8-aza-bicyclo[3.2.1]oct-3-yl}amide hydrochloride], the “Mean Number of Bowel Movements” value (10 mg dose) was 2.1 (1.2), the “Median Time to First Bowel Movement” value (10 mg dose) was 1.6 h and the “Mean Number of Bowel Movements” value (20 mg dose) was 2.0 (1.5). For the same molecule, the “Median Time to First Bowel Movement” value (20 mg dose) was 1.0 h, the “Mean Number of Bowel Movements” value (30 mg dose) was 3.6 (2.4) and the “Median Time to First Bowel Movement” value (30 mg dose) was 1.1 h. For the same molecule, the “Mean Number of Bowel Movements” value (50 mg dose) was 5.9 (3.9), the “Median Time to First Bowel Movement” value (50 mg dose) was 1.1 h and the “average Bristol score (stool consistency, 1 hard pellets to 7 liquid)” value (50 mg dose) was 5.6 (0.9). For the same molecule, the “Mean Number of Bowel Movements” value (70 mg dose) was 6.0 (3.0), the “Median Time to First Bowel Movement” value (70 mg dose) was 0.9 h and the “average Bristol score (stool consistency, 1 hard pellets to 7 liquid)” value (plateau at 20-70 mg) was 5.4-6.0. For the same molecule, the “time at which the effect dissipated post dosing” value (post dosing) was 24 to 48 h.
